Source: patent publication US20100267561A1, “HERBICIDAL PYRIDAZINONE DERIVATIVES” (priority 2007, published 2010)

Key:
Test in all cases: Test B pre-/postemergence plant response
Format in all cases: in vivo
[1] = system: Italian ryegrass (Lolium multiflorum); conditions: Preemergence
Excerpt: (§1) Seeds of plant species selected from blackgrass (Alopecurus myosuroides), downy bromegrass (Bromus tectorum), green foxtail (Setaria viridis), Italian ryegrass (Lolium multiflorum), wheat (Triticum aestivum), wild oat (Avena fatua), catchweed bedstraw (Galium aparine), bermudagrass (Cynodon dactylon), surinam grass (Brachiaria decumbens), cocklebur (Xanthium strumarium), corn (Zea mays), large crabgrass (Digitaria sanguinalis), woolly cupgrass (Eriochloa villosa), giant foxtail (Setaria faberii), goosegrass (Eleusine indica), johnsongrass (Sorghum halepense), kochia (Kochia scoparia), lambsquarters (Chenopodium album), morningglory (Ipomoea coccinea), eastern black (E.B.) nightshade (Solanum ptycanthum), yellow nutsedge (Cyperus esculentus), pigweed (Amaranthus retroflexus), common ragweed (Ambrosia elation), Russian thistle (Salsola iberica), soybean (Glycine max), common (oilseed) sunflower (Helianthus annuus), and velvetleaf (Abutilon theophrasti) were planted and treated preemergence with test chemicals formulated in a non-phytotoxic solvent mixture which included a surfactant.
(§2) At the same time, plants selected from these crop and weed species and also winter barley (Hordeum vulgare), canarygrass (Phalaris minor), chickweed (Stellaria media) and windgrass (Apera spica-venti) were treated with postemergence applications of some of the test chemicals formulated in the same manner. Plants ranged in height from 2 to 18 cm (1- to 4-leaf stage) for postemergence treatments.
(§3) Plant species in the flooded paddy test consisted of rice (Oryza sativa), umbrella sedge (Cyperus difformis), ducksalad (Heteranthera limosa) and barnyardgrass (Echinochloa crus-galli) grown to the 2-leaf stage for testing. At time of treatment, test pots were flooded to 3 cm above the soil surface, treated by application of test compounds directly to the paddy water, and then maintained at that water depth for the duration of the test. Treated plants and controls were maintained in a greenhouse for 13 to 15 days, after which time all species were compared to controls and visually evaluated. Plant response ratings, summarized in Table B, are based on a scale of 0 to 100 where 0 is no effect and 100 is complete control. A dash (-) response means no test result.

[2] = system: bermudagrass (Cynodon dactylon)
Excerpt: as §1, §2, §3

[3] = system: common (oilseed) sunflower (Helianthus annuus); conditions: Preemergence
Excerpt: as §1, §2, §3

[4] = system: downy bromegrass (Bromus tectorum); conditions: Preemergence
Excerpt: as §1, §2, §3

[5] = system: giant foxtail (Setaria faberii); conditions: Preemergence
Excerpt: as §1, §2, §3

[6] = system: lambsquarters (Chenopodium album); conditions: Preemergence
Excerpt: as §1, §2, §3

[7] = system: morningglory (Ipomoea coccinea); conditions: Preemergence
Excerpt: as §1, §2, §3

[8] = system: pigweed (Amaranthus retroflexus); conditions: Preemergence
Excerpt: as §1, §2, §3

soybean (Glycine max) = conditions: Preemergence
Excerpt: as §1, §2, §3

[9] = system: surinam grass (Brachiaria decumbens); conditions: Preemergence
Excerpt: as §1, §2, §3

[10] = system: wheat (Triticum aestivum); conditions: Preemergence
Excerpt: as §1, §2, §3

[11] = 31 g ai/ha, 0 to 100 scale, 0 no effect, 100 complete control

Compound: Cc1cc(-c2ccc(C(F)(F)F)cc2)nn1-c1c(OC(=O)C(C)(C)C)cnn(C)c1=O [Compound 2]
- Plant response rating, Ryegrass, Italian [1, 11]: 75
- Plant response rating, Ryegrass, Italian ([1]; 62 g ai/ha, scale 0 to 100): 100
- Plant response rating, Ryegrass, Italian ([1]; 125 g ai/ha, scale 0 to 100): 100
- Plant response rating, Ryegrass, Italian ([1]; 250 g ai/ha, scale 0 to 100): 100
- Bermudagrass plant response rating ([2]; 250 g ai/ha, preemergence, 0-100 scale): 100
- Plant response rating, Bermudagrass ([2]; Preemergence, 31 g ai/ha, 0 to 100 scale, 0 no effect, 100 complete control): 100
- Plant response rating, Bermudagrass ([2]; Preemergence, 62 g ai/ha, scale 0 to 100): 100
- Plant response rating, Bermudagrass ([2]; Preemergence, 125 g ai/ha, scale 0 to 100): 100
- Plant response rating, Sunflower [3, 11]: 0
- Plant response rating, Sunflower ([3]; 62 g ai/ha, scale 0 to 100): 0
- Plant response rating, Sunflower ([3]; 125 g ai/ha, scale 0 to 100): 0
- Plant response rating, Sunflower ([3]; 250 g ai/ha, scale 0 to 100): 0
- Plant response rating, Bromegrass, Downy [4, 11]: 0
- Plant response rating, Bromegrass, Downy ([4]; 62 g ai/ha, scale 0 to 100): 20
- Plant response rating, Bromegrass, Downy ([4]; 125 g ai/ha, scale 0 to 100): 70
- Plant response rating, Foxtail, Giant [5, 11]: 100
- Plant response rating, Foxtail, Giant ([5]; 62 g ai/ha, scale 0 to 100): 100
- Plant response rating, Foxtail, Giant ([5]; 125 g ai/ha, scale 0 to 100): 100
- Plant response rating, Foxtail, Giant ([5]; 250 g ai/ha, scale 0 to 100): 100
- Plant response rating, Lambsquarters [6, 11]: 0
- Plant response rating, Lambsquarters ([6]; 62 g ai/ha, scale 0 to 100): 0
- Plant response rating, Lambsquarters ([6]; 125 g ai/ha, scale 0 to 100): 0
- Plant response rating, Lambsquarters ([6]; 250 g ai/ha, scale 0 to 100): 30
- Plant response rating, Morningglory [7, 11]: 0
- Plant response rating, Morningglory ([7]; 62 g ai/ha, scale 0 to 100): 0
- Plant response rating, Morningglory ([7]; 125 g ai/ha, scale 0 to 100): 0
- Plant response rating, Morningglory ([7]; 250 g ai/ha, scale 0 to 100): 0
- Plant response rating, Pigweed [8, 11]: 0
- Plant response rating, Pigweed ([8]; 62 g ai/ha, scale 0 to 100): 0
- Plant response rating, Pigweed ([8]; 125 g ai/ha, scale 0 to 100): 70
- Plant response rating, Pigweed ([8]; 250 g ai/ha, scale 0 to 100): 70
- Plant response rating, Soybean (soybean (Glycine max); [11]): 0
- Plant response rating, Soybean (soybean (Glycine max); 62 g ai/ha, scale 0 to 100): 0
- Plant response rating, Soybean (soybean (Glycine max); 125 g ai/ha, scale 0 to 100): 0
- Plant response rating, Soybean (soybean (Glycine max); 250 g ai/ha, scale 0 to 100): 0
- Plant response rating, Surinam Grass [9, 11]: 85
- Plant response rating, Surinam Grass ([9]; 62 g ai/ha, scale 0 to 100): 85
- Plant response rating, Surinam Grass ([9]; 250 g ai/ha, scale 0 to 100): 100
- Plant response rating, Wheat [10, 11]: 30
- Plant response rating, Wheat ([10]; 62 g ai/ha, scale 0 to 100): 50
- Plant response rating, Wheat ([10]; 125 g ai/ha, scale 0 to 100): 60
- Plant response rating, Wheat ([10]; 250 g ai/ha, scale 0 to 100): 75

Compound: Cc1cn(-c2ccc(Cl)cc2)nc1-c1c(O)cnn(C)c1=O [Compound 30, 4-[1-(4-chlorophenyl)-4-methyl-1H-pyrazol-3-yl]-5-hydroxy-2-methyl-3(2H)-pyridazinone]
- pest or weed control at 16 g/ha ([1]; Lolium multiflorum, pre-emergence, 16 g ai/ha, scale 0 to 100 (0 no effect, 100 complete control), read-out: Plant response rating, Ryegrass, Italian): 10%
- pest or weed control at 31 g/ha ([1]; Lolium multiflorum, pre-emergence, 31 g ai/ha, 0 to 100 scale, 0 no effect, 100 complete control, read-out: Plant response rating, Ryegrass, Italian): 50%
- pest or weed control at 62 g/ha ([1]; Lolium multiflorum, pre-emergence, 62 g ai/ha, scale 0 to 100, read-out: Plant response rating, Ryegrass, Italian): 100%
- Ryegrass, Italian plant response rating ([1]; 8 g ai/ha, scale 0 to 100): 0
- pest or weed control at 16 g/ha ([2]; Cynodon dactylon, pre-emergence, Preemergence, 16 g ai/ha, scale 0 to 100 (0 no effect, 100 complete control), read-out: Plant response rating, Bermudagrass): 90%
- pest or weed control at 31 g/ha ([2]; Cynodon dactylon, pre-emergence, Preemergence, 31 g ai/ha, 0 to 100 scale, 0 no effect, 100 complete control, read-out: Plant response rating, Bermudagrass): 100%
- pest or weed control at 62 g/ha ([2]; Cynodon dactylon, pre-emergence, Preemergence, 62 g ai/ha, scale 0 to 100, read-out: Plant response rating, Bermudagrass): 100%
- Bermudagrass plant response rating ([2]; Preemergence, 8 g ai/ha, scale 0 to 100 (0 no effect, 100 complete control)): 60
- pest or weed control at 16 g/ha ([3]; Helianthus annuus, pre-emergence, 16 g ai/ha, scale 0 to 100 (0 no effect, 100 complete control), read-out: Plant response rating, Sunflower): 0%
- pest or weed control at 31 g/ha ([3]; Helianthus annuus, pre-emergence, 31 g ai/ha, 0 to 100 scale, 0 no effect, 100 complete control, read-out: Plant response rating, Sunflower): 0%
- pest or weed control at 62 g/ha ([3]; Helianthus annuus, pre-emergence, 62 g ai/ha, scale 0 to 100, read-out: Plant response rating, Sunflower): 0%
- Sunflower plant response rating ([3]; 8 g ai/ha, scale 0 to 100): 0
- pest or weed control at 16 g/ha ([4]; Bromus tectorum, pre-emergence, 16 g ai/ha, scale 0 to 100 (0 no effect, 100 complete control), read-out: Plant response rating, Bromegrass, Downy): 10%
- pest or weed control at 31 g/ha ([4]; Bromus tectorum, pre-emergence, 31 g ai/ha, 0 to 100 scale, 0 no effect, 100 complete control, read-out: Plant response rating, Bromegrass, Downy): 10%
- pest or weed control at 62 g/ha ([4]; Bromus tectorum, pre-emergence, 62 g ai/ha, scale 0 to 100, read-out: Plant response rating, Bromegrass, Downy): 85%
- Bromegrass, Downy plant response rating ([4]; 8 g ai/ha, scale 0 to 100): 0
- Foxtail, Giant plant response rating ([5]; 8 g ai/ha, scale 0 to 100): 60
- pest or weed control at 16 g/ha ([5]; Setaria faberi, pre-emergence, 16 g ai/ha, scale 0 to 100 (0 no effect, 100 complete control), read-out: Plant response rating, Foxtail, Giant): 98%
- pest or weed control at 31 g/ha ([5]; Setaria faberi, pre-emergence, 31 g ai/ha, 0 to 100 scale, 0 no effect, 100 complete control, read-out: Plant response rating, Foxtail, Giant): 100%
- pest or weed control at 62 g/ha ([5]; Setaria faberi, pre-emergence, 62 g ai/ha, scale 0 to 100, read-out: Plant response rating, Foxtail, Giant): 100%
- pest or weed control at 16 g/ha ([6]; Chenopodium album, pre-emergence, 16 g ai/ha, scale 0 to 100 (0 no effect, 100 complete control), read-out: Plant response rating, Lambsquarters): 0%
- pest or weed control at 31 g/ha ([6]; Chenopodium album, pre-emergence, 31 g ai/ha, 0 to 100 scale, 0 no effect, 100 complete control, read-out: Plant response rating, Lambsquarters): 0%
- pest or weed control at 62 g/ha ([6]; Chenopodium album, pre-emergence, 62 g ai/ha, scale 0 to 100, read-out: Plant response rating, Lambsquarters): 0%
- Lambsquarters plant response rating ([6]; 8 g ai/ha, scale 0 to 100): 0
- pest or weed control at 16 g/ha ([7]; Ipomoea, pre-emergence, 16 g ai/ha, scale 0 to 100 (0 no effect, 100 complete control), read-out: Plant response rating, Morningglory): 0%
- pest or weed control at 31 g/ha ([7]; Ipomoea, pre-emergence, 31 g ai/ha, 0 to 100 scale, 0 no effect, 100 complete control, read-out: Plant response rating, Morningglory): 0%
- Morningglory plant response rating ([7]; 8 g ai/ha, scale 0 to 100): 0
- pest or weed control at 16 g/ha ([8]; Amaranthus retroflexus, pre-emergence, 16 g ai/ha, scale 0 to 100 (0 no effect, 100 complete control), read-out: Plant response rating, Pigweed): 0%
- pest or weed control at 31 g/ha ([8]; Amaranthus retroflexus, pre-emergence, 31 g ai/ha, 0 to 100 scale, 0 no effect, 100 complete control, read-out: Plant response rating, Pigweed): 0%
- pest or weed control at 62 g/ha ([8]; Amaranthus retroflexus, pre-emergence, 62 g ai/ha, scale 0 to 100, read-out: Plant response rating, Pigweed): 0%
- Pigweed plant response rating ([8]; 8 g ai/ha, scale 0 to 100): 0
- plant injury at 16 g/ha (soybean (Glycine max); Glycine max, pre-emergence, 16 g ai/ha, scale 0 to 100 (0 no effect, 100 complete control), read-out: Plant response rating, Soybean): 0%
- plant injury at 31 g/ha (soybean (Glycine max); Glycine max, pre-emergence, 31 g ai/ha, 0 to 100 scale, 0 no effect, 100 complete control, read-out: Plant response rating, Soybean): 0%
- plant injury at 62 g/ha (soybean (Glycine max); Glycine max, pre-emergence, 62 g ai/ha, scale 0 to 100, read-out: Plant response rating, Soybean): 0%
- Soybean plant response rating (soybean (Glycine max); 8 g ai/ha, scale 0 to 100): 0
- Surinam Grass plant response rating ([9]; 8 g ai/ha, scale 0 to 100): 10
- pest or weed control at 16 g/ha ([9]; Urochloa decumbens, pre-emergence, 16 g ai/ha, scale 0 to 100 (0 no effect, 100 complete control), read-out: Plant response rating, Surinam Grass): 60%
- pest or weed control at 31 g/ha ([9]; Urochloa decumbens, pre-emergence, 31 g ai/ha, 0 to 100 scale, 0 no effect, 100 complete control, read-out: Plant response rating, Surinam Grass): 90%
- pest or weed control at 62 g/ha ([9]; Urochloa decumbens, pre-emergence, 62 g ai/ha, scale 0 to 100, read-out: Plant response rating, Surinam Grass): 95%
- Wheat plant response rating ([10]; 8 g ai/ha, scale 0 to 100): 0
- plant injury at 16 g/ha ([10]; Triticum aestivum, pre-emergence, 16 g ai/ha, scale 0 to 100 (0 no effect, 100 complete control), read-out: Plant response rating, Wheat): 0%
- plant injury at 31 g/ha ([10]; Triticum aestivum, pre-emergence, 31 g ai/ha, 0 to 100 scale, 0 no effect, 100 complete control, read-out: Plant response rating, Wheat): 0%
- plant injury at 62 g/ha ([10]; Triticum aestivum, pre-emergence, 62 g ai/ha, scale 0 to 100, read-out: Plant response rating, Wheat): 10%
